Laboratory results taken from ChEMBL document CHEMBL1201862, “PubChem BioAssay data set” (2004).
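Interpolation was linear, between the two tested concentrations surrounding the appropriate level; five concentrations were tested over 48 hours in 96-well plates. GI50 is the concentration that inhibits growth by half.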 Activity calls are given as the source filed them. No stated cut-off is given here; in the data, active = GI50 up to about 1.1 µM and inactive = higher.

Experiments:
Assay in all cases: NCI anticancer screen, dose series, 48 h
[1] = tested on: KM-20L2
[2] = tested on: SNB-78
[3] = tested on: COLO 205
[4] = tested on: CCRF-CEM
[5] = tested on: TK-10
[6] = tested on: NCI-H226
[7] = tested on: KM12
[8] = tested on: U-251
[9] = tested on: SK-MEL-2
[10] = tested on: K562
[11] = tested on: RXF 631
[12] = tested on: OVCAR-3
[13] = tested on: OVCAR-5
[14] = tested on: HCC 2998
[15] = tested on: UO-31
[16] = tested on: HL-60
[17] = tested on: UACC-257
[18] = tested on: ACHN
[19] = tested on: HOP-18
[20] = tested on: HOP-92
[21] = tested on: RXF 393
[22] = tested on: DMS-114
[23] = tested on: SK-OV-3
[24] = tested on: SW-620
[25] = tested on: SK-MEL-5
[26] = tested on: HT-29
[27] = tested on: CAKI-1
[28] = tested on: SK-MEL-28
[29] = tested on: 786-0
[30] = tested on: LXFL 529
[31] = tested on: IGROV-1
[32] = tested on: NCI-H460
[33] = tested on: SF-539
[34] = tested on: SR
[35] = tested on: OVCAR-4
[36] = tested on: A549
[37] = tested on: EKVX
[38] = tested on: M19-MEL
[39] = tested on: LOX IMVI
[40] = tested on: UACC-62
[41] = tested on: HOP-62
[42] = tested on: HCT-116
[43] = tested on: Malme-3M
[44] = tested on: HCT-15
[45] = tested on: SN12C
[46] = tested on: NCI-H23
[47] = tested on: RPMI-8226
[48] = tested on: MOLT-4
[49] = tested on: DLD-1
[50] = tested on: SF-268
[51] = tested on: A498
[52] = tested on: DMS-273
[53] = tested on: SNB-75
[54] = tested on: M14
[55] = tested on: SF-295
[56] = tested on: SNB-19
[57] = tested on: XF498
[58] = tested on: OVCAR-8
[59] = tested on: NCI-H522

## CCCCCCc1cc(C(=O)Nc2cccc(C(F)(F)F)c2)nc(N)n1
[1]
  GI50: > 100 µM (inactive)
[2]
  GI50: > 100 µM (inactive)
[3]
  GI50: > 100 µM (inactive)
[4]
  GI50: > 100 µM (inactive)
[5]
  GI50: > 100 µM (inactive)
[6]
  GI50: > 100 µM (inactive)
[7]
  GI50: > 100 µM (inactive)
[8]
  GI50: > 100 µM (inactive)
[9]
  GI50: > 100 µM (inactive)
[10]
  GI50: > 100 µM (inactive)
[11]
  GI50: > 100 µM (inactive)
[12]
  GI50: > 100 µM (inactive)
[13]
  GI50: > 100 µM (inactive)
[14]
  GI50: > 100 µM (inactive)
[15]
  GI50: > 100 µM (inactive)
[16]
  GI50: > 100 µM (inactive)
[17]
  GI50: > 100 µM (inactive)
[18]
  GI50: > 100 µM (inactive)
[19]
  GI50: > 100 µM (inactive)
[20]
  GI50: > 100 µM (inactive)
[21]
  GI50: > 100 µM (inactive)
[22]
  GI50: > 100 µM (inactive)
[23]
  GI50: > 100 µM (inactive)
[24]
  GI50: > 100 µM (inactive)
[25]
  GI50: > 100 µM (inactive)
[26]
  GI50: > 100 µM (inactive)
[27]
  GI50: > 100 µM (inactive)
[28]
  GI50: > 100 µM (inactive)
[29]
  GI50: > 100 µM (inactive)
[30]
  GI50: > 100 µM (inactive)
[31]
  GI50: > 100 µM (inactive)
[32]
  GI50: > 100 µM (inactive)
[33]
  GI50: > 100 µM (inactive)
[34]
  GI50: > 100 µM (inactive)
[35]
  GI50: > 100 µM (inactive)
[36]
  GI50: > 100 µM (inactive)
[37]
  GI50: > 100 µM (inactive)
[38]
  GI50: > 100 µM (inactive)
[39]
  GI50: > 100 µM (inactive)
[40]
  GI50: > 100 µM (inactive)
[41]
  GI50: 63.4 µM (inactive)
[42]
  GI50: > 100 µM (inactive)
[43]
  GI50: > 100 µM (inactive)
[44]
  GI50: > 100 µM
[45]
  GI50: > 100 µM (inactive)
[46]
  GI50: > 100 µM (inactive)
[47]
  GI50: > 100 µM (inactive)
[48]
  GI50: > 100 µM (inactive)
[49]
  GI50: > 100 µM (inactive)
[50]
  GI50: > 100 µM (inactive)
[51]
  GI50: > 100 µM (inactive)
[52]
  GI50: > 100 µM (inactive)
[53]
  GI50: > 100 µM (inactive)
[54]
  GI50: > 100 µM (inactive)
[55]
  GI50: > 100 µM (inactive)
[56]
  GI50: > 100 µM (inactive)

## O=C1C(O)=C(CN(CCCl)CCCl)C(=O)c2ccccc21
[1]
  GI50: 28.7 µM (inactive)
[2]
  GI50: 70.8 µM (inactive)
[4]
  GI50: 42.3 µM (inactive)
[5]
  GI50: > 100 µM (inactive)
[7]
  GI50: 56.5 µM (inactive)
[8]
  GI50: 64.3 µM (inactive)
[9]
  GI50: > 100 µM (inactive)
[10]
  GI50: 45.6 µM (inactive)
[11]
  GI50: 87.9 µM (inactive)
[12]
  GI50: 45.1 µM (inactive)
[13]
  GI50: 76.9 µM (inactive)
[14]
  GI50: 97.5 µM (inactive)
[57]
  GI50: > 100 µM (inactive)
[15]
  GI50: 37.4 µM (inactive)
[16]
  GI50: 31 µM (inactive)
[58]
  GI50: 76.9 µM (inactive)
[18]
  GI50: 35.2 µM (inactive)
[59]
  GI50: 66.8 µM (inactive)
[20]
  GI50: 56.5 µM (inactive)
[21]
  GI50: 28 µM (inactive)
[23]
  GI50: > 100 µM (inactive)
[24]
  GI50: 53.2 µM (inactive)
[25]
  GI50: 52.6 µM (inactive)
[26]
  GI50: 42.8 µM (inactive)
[27]
  GI50: 39.7 µM (inactive)
[28]
  GI50: > 100 µM (inactive)
[29]
  GI50: 28.2 µM (inactive)
[30]
  GI50: 48.3 µM (inactive)
[31]
  GI50: 20.5 µM (inactive)
[32]
  GI50: 29.2 µM (inactive)
[33]
  GI50: 34 µM (inactive)
[34]
  GI50: 35.6 µM (inactive)
[35]
  GI50: > 100 µM (inactive)
[36]
  GI50: 34.3 µM (inactive)
[37]
  GI50: > 100 µM (inactive)
[38]
  GI50: 54.6 µM (inactive)
[40]
  GI50: 39.6 µM (inactive)
[41]
  GI50: > 100 µM (inactive)
[42]
  GI50: 34.4 µM (inactive)
[43]
  GI50: 53.5 µM (inactive)
[44]
  GI50: 31 µM
[45]
  GI50: 57.1 µM (inactive)
[46]
  GI50: 68.9 µM (inactive)
[48]
  GI50: 29.3 µM (inactive)
[49]
  GI50: 44.3 µM (inactive)
[50]
  GI50: 43.1 µM (inactive)
[51]
  GI50: > 100 µM (inactive)
[53]
  GI50: 73.6 µM (inactive)
[54]
  GI50: 65.6 µM (inactive)
[55]
  GI50: 70.3 µM (inactive)
[56]
  GI50: 50 µM (inactive)
